Measured values reported in patent EP0748793A1, “KETOPANTHENOL WITH ACETYLATING PROPERTIES” (TOVARISCHESTVO S OGRANICHENNOI OTVETSTVENNOSTJU " PANT", priority 1994, dated 1995).
“Also recorded” adds a separate entry of the source.

What was measured:
[1] = test system: acetylation of aromatic amines (N-acetylation); experiment: Acetylating properties of the organism: acetylation of sodium sulfacyl, arylamines determined in urine; type: in vivo, white rats; details: for % of excretion from the dose, In acetylated form / % of excretion from the dose, In free form / Acetylating properties of the organism: Na sulfacyl acetylating in the organism of rats; for Concentration in urine, In acetylated form / Concentration in urine, In free form: Na sulfacyl in rat urine; for Na sulfacyl excretion, Sulfacyl isolation M ± m, In acetylated form / Na sulfacyl excretion, Sulfacyl isolation M ± m, In free form / Na sulfacyl excretion, Sulfacyl isolation M ± m, Total / Na sulfacyl excretion, Excretion % from the dose: rats; for Na sulfacyl excretion, Sulfacyl isolation M ± m, In acetylated form / Na sulfacyl excretion, Sulfacyl isolation M ± m, In free form / Na sulfacyl excretion, Sulfacyl isolation M ± m, Total: agent i.p. for 4 days, then Na sulfacyl 20 mg/kg i.p., urine; for Na sulfacyl excretion, Excretion % from the dose: total sulfacyl in urine relative to the sulfacyl dose
Procedure: The level of the organism supply with a vitamin is determined by the study of the reaction of acetylation of exogenous aromatic amines. The total acetylating properties of the organism were assessed by the method of quantitative determination of the content of arylamines in the examined substrate (urine).
Sodium sulfacyl was chosen as the substance for acetylation.
The influence of 4-days of injections of ketopanthenol on the acetylating properties of white rats was examined during the experiments.
The experiments were carried out using mongrel pubescent male rats. 14 animals were included in each group. The examined agent was injected intraperitoneally in a dose of 29 mg/kg. On the 4th day 4 hours after the last injection of the examined agent the sodium sulfacyl solution in a dose of 20 mg/kg was injected intraperitoneally. All the rats were separated into exchangeable cages for urine gathering. The resulting data were compared with the control groups (group I - only received sodium sulfacyl in a dose of 20 mg/kg, and group II received calcium D-pantothenate).
The average weight of the animals in the group fluctuated within 154.7 ± 10.8 g, the absolute dose of sodium sulfacyl was 3.09 ± 0.14 mg.

non-linear white rats = experiment: Subchronic toxicity and local irritating effect, 2 months daily dosing, mass growth; type: in vivo
Procedure: The study of subchronic toxicity and the local irritating effect of ketopanthenol.
In the experiment carried out for 2 months, non-linear white rats of both sexes with the average initial weight of 75 ± 3.3 g were used. The animals were divided into 7 groups. The first three groups received daily, during the whole experimental period, ketopanthenol in 0.2 ml of distilled water in doses of 13.2 mg/kg (which corresponds to the therapeutic dose of vitamin B3), 132.0 and 264 mg/kg (in doses 10 and 20 times larger than the therapeutic dose). […] The animals of the seventh group were used as control, receiving internally 0.2 ml of distilled water daily.
During the whole experiment the animals were weighed once a week and the observation on their development, state and behavior was carried out.

in vivo = details: mouse, po
Procedure: (§1) To determine acute toxicity of ketopanthenol, non-linear white mice of both sexes with the average mass of 19 ± 3 g were used. There were 72 mice in the experiment, the animals were divided into 12 groups, 6 animals in each group. The mice of the first 6 groups received ketopanthenol in 0.2 ml of distilled water once internally in doses: 20.0, 21.0, 22.0, 23.0, 24.0 and 25.0 g/kg.
(§2) The 12 group was the control one, the mice of this group received once internally only 0.2 ml of distilled water.
(§3) The mice were under observation for 14 days.
(§4) The LD50 calculations were carried out according to Kerber

Solubility in solvents = type: physicochemical
[2] = test system: conjunctive bag of the eye; experiment: Eye irritation, aqueous solution dripped into the conjunctive bag; type: in vivo; details: eye of 5 rabbits, three days
Source text: The aqueous solution of ketopanthenol was dripped into the conjunctive bag of the eye of 5 rabbits weighing 2.5 ± 0.3 kg for three days.

non-linear white mice = experiment: in vivo; details: mouse
Procedure: as §1, §2, §3, §4

[3] = dose 10 times larger than the therapeutic dose (132.0 mg/kg), 2 months
[4] = dose 20 times larger than the therapeutic dose (264 mg/kg), 2 months
[5] = rats, 13.2 mg/kg daily, 2 months
[6] = rats, 132.0 mg/kg daily, 2 months
[7] = rats, 264.0 mg/kg daily, 2 months
[8] = therapeutic dose (13.2 mg/kg), 2 months

SMILES | % of excretion from the dose, In acetylated form [1] [%] | % of excretion from the dose, In free form [1] [%] | Acetylating properties of the organism [1] | Concentration in urine, In acetylated form [1] [mg/mL] | Concentration in urine, In free form [1] [mg/mL] | Na sulfacyl excretion, Sulfacyl isolation M ± m, In acetylated form [1] | Na sulfacyl excretion, Sulfacyl isolation M ± m, In free form [1] | Na sulfacyl excretion, Sulfacyl isolation M ± m, Total [1] | Na sulfacyl excretion, Excretion % from the dose [1] [%] | growth of the mass of the rats, higher in comparison with the control animals (non-linear white rats; [3]) [%] | growth of the mass of the rats, higher in comparison with the control animals (non-linear white rats; [4]) [%] | Mass growth during the experiment (non-linear white rats; [5]) [g] | Mass growth during the experiment, % to the control (non-linear white rats; [5]) [%] | Mass, Final (non-linear white rats; [5]) | Mass growth during the experiment (non-linear white rats; [6]) [g] | Mass growth during the experiment, % to the control (non-linear white rats; [6]) [%] | Mass, Final (non-linear white rats; [6]) | Mass growth during the experiment (non-linear white rats; [7]) [g] | Mass growth during the experiment, % to the control (non-linear white rats; [7]) [%] | Mass, Final (non-linear white rats; [7]) | other results
CC(C)(CO)[C@@H](O)C(=O)NCCC(=O)O [D (+) pantothenate Ca, calcium D-pantothenate, reference compound] | 22.3 ± 1.8 | 70.7 ± 6.0 | 24.0 | 0.172 | 0.54 | 0.67 ± 0.04 | 2.12 ± 0.09 | 2.79 ± 0.19 | 93.0 | – | – | – | – | – | – | – | – | – | – | – | –
CC(C)(CO)[C@@H](O)C(=O)NCCCO [D-panthenol, D-pantothenyl alcohol, reference compound] | – | – | – | – | – | – | – | – | – | 9.3 | 5.2 | 129.5 ± 8.5 | 108.0 | 202.0 ± 16.4 | 131.1 ± 8.5 | 109.3 | 205.1 ± 16.0 | 126.1 ± 9.3 | 105.2 | 197.3 ± 18.8 | growth of the mass of the rats, higher in comparison with the control animals (non-linear white rats; [8]): 8.0%; MTD at 336 h (in vivo): 21000 mg/kg
CC(C)(CO)C(=O)C(=O)NCCCO [ketopanthenol] | 32.0 ± 2.3 | 62.1 ± 2.9 | 34.0 | 0.36 | 0.71 | 0.99 ± 0.4 | 1.92 ± 0.09 | 2.91 ± 0.21 | 94.2 | 12.0 | 6.5 | 132.7 ± 10.7 | 103.72 | 210.7 ± 18.1 | 134.3 ± 8.4 | 112.0 | 209.5 ± 22.5 | 127.7 ± 11.0 | 106.5 | 200.1 ± 12.3 | changes in development, state and behavior of the animals (non-linear white rats; rats, 2 months, in comparison with the control rats): No changes; toxic influence on the animals' organism (non-linear white rats; rats, prolonged period (2 months)): no toxic influence; also recorded: no toxic effect; local irritating effect (non-linear white rats; rats, visual examination of the internal organs after slaughtering): no local irritating effect was observed; growth of the mass of the rats, higher in comparison with the control animals (non-linear white rats; [8]): 10.7%; solubility (Solubility in solvents; in ether): poor solubility; solubility (Solubility in solvents; in water, alcohols, acetone, chloroform): good solubility; irritating effect [2]: No irritating effect was observed; excretion of the sulfacyl in its free form, lower ([1]; compared with the series I (control)): 20%; increase of the acetylating properties of the organism ([1]; in comparison with calcium D-pantothenate): 1.5 times; increase of the excretion of the acetylated product ([1]; in comparison with group II (calcium D-pantothenate)): 1.7 times; increase of the acetylating properties of the organism ([1]; in comparison with the control): 3.6 times; increase of the excretion of the acetylated product ([1]; in comparison with the control group): 4 times; LD50 at 336 h (in vivo): 23500 mg/kg; MTD at 336 h (in vivo): 21000 mg/kg; dose from which mice lost mobility, had quickened breathing, inertia, narrowed eye slots (non-linear white mice): ≥ 22.0 g/kg; LD100 (non-linear white mice; 20160 min): 25.0 g/kg
